Assay results: patent US20250066360A1, “PYRIDINE-CONTAINING POLYCYCLIC DERIVATIVE, AND PREPARATION METHOD THEREFOR AND USE THEREOF” (SHANGHAI HANSOH BIOMEDICAL CO., LTD., priority 2022, published 2025)
Read-outs that look alike come from different tables or passages of the source.

What was measured:
[1] = molecular target: p38-MK2 (Homo sapiens, UniProt P49137+Q16539); conditions: patients with rheumatoid arthritis, preliminary clinical trial results; cited from earlier work
[2] = molecular target: T1, p38α/MK2 (Homo sapiens, UniProt P49137+Q16539); test: Inhibition of p38α/MK2 enzyme activity (TR-FRET, ULight-CREBtide); assay type: biochemical; conditions: for IC50: 0.06 nM p38a, 1.2 nM MK2, 25 μM ATP, read-out: p38/MK2 IC50; for Selectivity ratio (p38 IC50 / p38/MK2 IC50): selectivity ratio p38 IC50 over p38/MK2 IC50
T1 construct: purchased R & D systems (p38 alpha); Thermo (MK2) 5477-KS-010; PV3316
T1 sequence (Q16539 whole entry): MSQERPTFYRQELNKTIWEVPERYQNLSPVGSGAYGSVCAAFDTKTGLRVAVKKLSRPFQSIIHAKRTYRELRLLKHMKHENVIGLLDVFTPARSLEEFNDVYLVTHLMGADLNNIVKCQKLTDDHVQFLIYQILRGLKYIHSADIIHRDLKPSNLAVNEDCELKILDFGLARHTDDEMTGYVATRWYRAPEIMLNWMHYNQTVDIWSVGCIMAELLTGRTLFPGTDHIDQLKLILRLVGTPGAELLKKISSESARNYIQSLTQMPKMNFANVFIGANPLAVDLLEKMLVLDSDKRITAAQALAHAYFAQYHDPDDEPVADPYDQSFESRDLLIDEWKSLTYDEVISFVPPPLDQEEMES
T1 sequence (P49137 whole entry): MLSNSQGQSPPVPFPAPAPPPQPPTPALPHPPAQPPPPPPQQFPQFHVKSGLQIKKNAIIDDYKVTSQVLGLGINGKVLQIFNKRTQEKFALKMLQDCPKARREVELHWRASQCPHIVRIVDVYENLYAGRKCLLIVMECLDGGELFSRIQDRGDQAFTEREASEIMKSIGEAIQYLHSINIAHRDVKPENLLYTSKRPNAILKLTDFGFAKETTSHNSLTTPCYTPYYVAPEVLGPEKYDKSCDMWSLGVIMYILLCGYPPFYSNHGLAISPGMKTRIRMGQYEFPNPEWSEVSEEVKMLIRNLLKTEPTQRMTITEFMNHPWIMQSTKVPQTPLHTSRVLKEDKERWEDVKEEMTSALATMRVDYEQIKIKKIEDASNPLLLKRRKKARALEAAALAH
Description: (§1) 50 nM ULight-CREBtide and 25 μM ATP (ATP Solution) were added, and the mixture was reacted at room temperature for 1.5 hours. An equal volume of a detection and termination mixed solution (1×LANCE detection buffer containing 20 mM EDTA and 2 nM Europium-anti-phospho-CREB) was added, the mixture was mixed until uniform and centrifuged, a plate sealing film was attached, and a reaction was performed at room temperature for 1 hour. TR-FRET program of the EnVision instrument was used to read the plate, and the fluorescence value of each well was detected at 665 nm/615 nm.
(§2) Calculation was performed on the raw data (665 nm/615 nm reading ratio) according to the following formula to obtain the inhibition rate. Inhibition rate %=[(mean value in positive control well−value in sample well)/(mean value in positive control well−mean value in negative control well)]×100, wherein the positive control well was a reaction well without a compound […], and the negative control well was a reaction wells without an enzyme.
(§3) Log(inhibitor) vs. response−Variable slope (four parameters) in GraphPad Prism 6 was used for fitting equation analysis of the compound concentration and the corresponding inhibition rate, and the curve was fitted to obtain the IC50 value of the compound.
(§4) The fitting calculation equation was Y=Bottom+(Top−Bottom)/(1+10^((Log IC50−X)*HillSlope)).

[3] = molecular target: T2, p38a (Active p38 alpha Protein) (Homo sapiens, UniProt Q16539); test: Inhibition of p38 enzyme activity (TR-FRET, ULight-MBP); assay type: biochemical; conditions: 3 nM p38a, 50 μM ATP
T2 construct: purchased R & D systems 5477-KS-010
T2 sequence (Q16539 whole entry): as the sequence (Q16539 whole entry) above
Description: as §1, with “Experimental method for determining the p38 enzyme activity: 3 nM p38a (Active p38 alpha Protein) and compounds diluted in a certain concentration gradient were incubated in 1× enzyme reaction buffer (50 mM HEPES pH 7.5, 1 mM EGTA, 10 mM MgCl2, 2 mM DTT, 0.01% Tween-20) for 1 hour. 50” for “50”, “ULight-MBP” for “ULight-CREBtide”, “50” for “25”, “(ATP 10 mM” for “(ATP”, “Europium-anti-P-MBP)” for “Europium-anti-phospho-CREB)”
as §2, §3, §4

[4] = system: p-Hsp27 in U937 cells; test: Inhibition of p-Hsp27 in LPS-stimulated U937 cells (ELISA); assay type: cell-based; conditions: Homo sapiens, U-937; PMA-differentiated U937, 10 ng/ml LPS 0.5 hours; read-out: U937 cell activity test p-HSP27 IC50
Description: U937 cells were treated with 20 ng/ml PMA for differentiation overnight, and after replacement with a fresh culture medium, the U937 cells were rested overnight. After differentiation, the U937 cell were digested and counted, and 25,000 cells per well were seeded in a 96-well plate until the cells adhered to the wall. A compound concentration gradient was prepared, the cells were pretreated with the compound for 1 hour (the highest final concentration of the compound was 1 μM, diluted in 3-fold concentration gradient), and 10 ng/ml LPS (Lipopolysaccharides from Escherichia coli O111:B4) was added for stimulation for 0.5 hours. After the cells were washed with PBS, the cells were lysed with a lysis solution. p-Hsp27 in the cell lysate was detected by using Phospho-HSP27 (S78/S82) DuoSet IC ELISA kit. For specific steps, reference could be made to the standard steps provided by the kit manufacturer.
Calculation of p-Hsp27 inhibition rate: Inhibition rate %=[(mean value of p-Hsp27 in positive control well−mean value of p-Hsp27 in sample well)/(mean value of p-Hsp27 in positive control well−mean value of p-Hsp27 in negative control well)]×100%, wherein the positive control well was a well without a compound (DMSO-treated well), and the negative control well was a well without LPS stimulation.
(§5) Dose response curve fitting: Log(inhibitor) vs. response−Variable slope (four parameters) in GraphPad Prism 6 was used for fitting equation analysis of the compound concentration and the corresponding inhibition rate, and the curve was fitted to obtain the IC50 value of the compound.
as §4

[5] = system: TNF-α in U937 cells; test: Inhibition of the expression level of TNF-α in LPS-stimulated U937 cells (ELISA); assay type: cell-based; conditions: Homo sapiens, U-937; PMA-differentiated U937, 10 ng/ml LPS 4 hours; read-out: U937 cell activity test TNF-α IC50
Description: U937 cells were treated with 20 ng/ml PMA for differentiation overnight, and after replacement with a fresh culture medium, the U937 cells were rested overnight. After differentiation, the U937 cells were digested and counted, and 50,000 cells per well were seeded in a 96-well plate until the cells adhered to the wall. A compound concentration gradient was prepared, the cells were pretreated with the compound for 1 hour (the highest final concentration of the compound was 1 μM, diluted in 3-fold concentration gradient), and 10 ng/ml LPS (Lipopolysaccharides from Escherichia coli O111:B4) was added for stimulation for 4 hours. Thereafter, the culture supernatant was collected by centrifugation and used for subsequent ELISA to detect the concentration of TNF-α in the supernatant. The concentration of TNF-α was detected according to the standard steps provided by the ELISA kit manufacturer.
A standard curve was plotted by a linear regression method from a TNF-α standard, and the concentration of TNF-α in a sample was derived by conversion according to the standard curve.
Calculation of inhibition rate: Inhibition rate %=[(mean value of TNF-α concentration in positive control well−mean value of TNF-α concentration in sample well)/(mean value of TNF-α concentration in positive control well−mean value of TNF-α concentration in negative control well)]×100%, wherein the positive control well was a well without a compound (DMSO-treated well), and the negative control well was a culture medium well.
as §5, with “compound. The fitting calculation equation was Y=Bottom+(Top−Bottom)/(1+10^((Log IC50−X)*HillSlope)).” for “compound.”

[6] = Pharmacokinetic assay in SD rats (PO administration); assay type: in vivo; conditions: male, Sprague-Dawley (SD), rat, plasma; for AUC(0-inf): read-out: Area under the curve AUC0-∞; for half-life: read-out: Half-life t1/2 (converted); for MRT: read-out: Mean residence time MRT; for Cmax: read-out: Plasma concentration Cmax; for Tmax: read-out: Time to peak tmax
Description: SD rats were used as test animals to study the pharmacokinetic behavior of the compounds of the present invention in the rat body (plasma) after oral administration at a dose of 5 mg/kg or 2 mg/kg and intravenous administration at a dose of 1 mg/kg.
3 SD rats/group, male, from Shanghai Jiesijie Experimental Animal Co., Ltd., animal production license number (SCXK (Shanghai) 2013-0006 N0.311620400001794).
PO, 10% solutol HS15 was dissolved by ultrasound and prepared into a clear solution or homogeneous suspension.
3 SD rats/group, male; After fasting overnight, the rats were administered p.o. at a dose of 5 mg/kg or 2 mg/kg with a dosage volume of 10 mL/kg and i.v. at a dose 1 mg/kg with a dosage volume of 5 mL/kg, respectively.
At 0.25, 0.5, 1, 2, 4, 6, 8, and 24 h after oral administration in the rats and at 0.083, 0.25, 0.5, 1, 2, 4, 6, 8, and 24 h after intravenous administration in the rats, 0.2 mL of blood was collected from the jugular vein, placed in an EDTA-K2 test tube, centrifuged at 4° C. at 6000 rpm for 6 min to separate plasma, which was stored at −80° C.
• 1) 100 μL of acetonitrile was added to 20 μL of plasma sample for pelleting, and it was mixed and centrifuged at 3500×g for 5-20 min. • 2) The treated supernatant solution was taken and subjected to LC/MS/MS to analyze the concentrations of the test compounds. LC/MS/MS analysis instrument: AB Sciex API 4000 Qtrap.
• Liquid phase conditions: Shimadzu LC-20AD pump • Chromatographic column: Waters Xbridge C18 5 μm, 4.6×50 mm, mobile phase: liquid A was 0.1% aqueous formic acid solution, and liquid B was methanol • Flow rate: 1.0 mL/min • Elution time: 0-4.0 min, the eluent was as follows:
The main pharmacokinetic parameters were calculated using WinNonlin 6.1.

p38-MK2, sequence (Q16539 whole entry): as above
p38-MK2, sequence (P49137 whole entry): as the sequence (P49137 whole entry) above

Compound | efficacy [1] | safety and tolerability [1] | IC50 [2] [nM] | Selectivity ratio (p38 IC50 / p38/MK2 IC50) [2] | IC50 [3] [nM] | IC50 [4] [nM] | IC50 [5] [nM] | AUC(0-inf) ([6]; 5 mg/kg) [ng·h/mL] | half-life ([6]; 5 mg/kg) [h] | MRT ([6]; 5 mg/kg) [h] | Cmax ([6]; 5 mg/kg) [ng/mL] | Tmax ([6]; 5 mg/kg) [h] | AUC(0-inf) ([6]; 2 mg/kg) [ng·h/mL] | half-life ([6]; 2 mg/kg) [h] | MRT ([6]; 2 mg/kg) [h] | Cmax ([6]; 2 mg/kg) [ng/mL] | Tmax ([6]; 2 mg/kg) [h]
Cc1cnc(-c2ccnc(C(C)(C)O)n2)cc1-n1c(C)cc(OCc2ncc(F)cc2F)c(Cl)c1=O [ATI-450] | outstanding and lasting efficacy | safe and tolerable |  |  |  |  |  |  |  |  |  |  |  |  |  |  | 
[2H]C([2H])(Oc1cc2n(c(=O)c1Cl)-c1c(cnc(-n3cc(F)c(C(C)(C)NC(C)=O)n3)c1F)CCCC2)c1ncc(F)cc1F [Example 6-1, (R)—N-(2-(1-(11-chloro-10-((3,5-difluoropyridin-2-yl)methoxy-d2)-1-fluoro-12-carbonyl-6,7,8,12-tetrahydro-5H-dipyrido[1,2-a:3′,4′-g]azocin-2-yl)-4-fluoro-1H-pyrazol-3-yl)propan-2-yl)acetamide] |  |  | 0.1 | 153 | 15.3 | 0.15 | 0.16 | 14200 | 2.7 | 2.9 | 4180 | 1 |  |  |  |  | 
[2H]C([2H])(Oc1cc2n(c(=O)c1Cl)-c1c(cnc(-c3ccnc(C(C)(C)NC(C)=O)n3)c1F)CCCC2)c1ncc(F)cc1F [Example 7-1, (R)—N-(2-(4-(11-chloro-10-((3,5-difluoropyridin-2-yl)methoxy-d2)-1-fluoro-12-carbonyl-6,7,8,12-tetrahydro-5H-dipyrido[1,2-a:3,4′-g]azocin-2-yl)pyrimidin-2-yl)propan-2-yl)acetamide] |  |  | 0.34 | 144 | 49.1 | 0.35 | 0.34 |  |  |  |  |  | 7350 | 1.4 | 2.5 | 2160 | 1
[2H]C([2H])(Oc1cc2n(c(=O)c1Cl)-c1c(cnc(-c3ccnc(C(C)(C)O)n3)c1F)CCCC2)c1ncc(F)cc1F [Example 9-1, (R)-11-chloro-10-((3,5-difluoropyridin-2-yl)methoxy-d2)-1-fluoro-2-(2-(2-hydroxypropan-2-yl)pyrimidin-4-yl)-5,6,7,8-tetrahydro-12H-dipyrido[1,2-a:3′4′-g]azocin-12-one] |  |  | 0.14 | 164 | 22.9 | 0.1 | 0.12 | 22000 | 2.5 | 3.8 | 3760 | 0.5 |  |  |  |  | 
[2H]C([2H])(Oc1cc(C)n(-c2cc(-n3cccc(C(C)(C)O)c3=O)ncc2C)c(=O)c1Cl)c1ccc(F)cc1F [Example 14-1, (S)-3″-chloro-4″-((2,4-difluorophenyl)methoxy-d2)-3-(2-hydroxypropan-2-yl)-5′,6″-dimethyl-2H,2″H-[1,2′:4′,1″-terpyridine]-2,2″-dione] |  |  | 0.05 | 102 | 5.1 | 0.13 | 0.12 |  |  |  |  |  |  |  |  |  | 
[2H]C([2H])(Oc1cc2n(c(=O)c1Cl)-c1cc(-n3cccc(C(C)(C)O)c3=O)ncc1CCCC2)c1ncc(F)cc1F [Example 15-1, (S)-11-chloro-10-((3,5-difluoropyridin-2-yl)methoxy-d2)-2-(3-(2-hydroxypropan-2-yl)-2-carbonylpyridin-1(2H)-yl)-5,6,7,8-tetrahydro-12H-dipyrido[1,2-a:3′,4′-g]azocin-12-one] |  |  | 0.2 | 268 | 53.6 | 0.32 | 0.18 |  |  |  |  |  |  |  |  |  | 
